# Reference: the supplement of paper PMC11616607
# Tested on: OV90
# Assay: drug sensitivity score (DSS) from 5-point dose-response viability curve (DSS (area-under-curve based score)); higher = more sensitive (stronger growth inhibition or killing); extreme values may be limits of the assay
# Details: exposure time: 72 h; concentration range: 5 concentrations over 10,000-fold range
# Summary of the method: (§1)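 Drugs in DMSO or water were acoustically dispensed (Echo 550) into 384-well plates at five concentrations across a 10,000-fold range. Ovarian cancer and normal ovarian cells (1,500 per well) were then added, incubated for 3 days at 37°C with 5% CO2, and read for viability by CellTiter-Glo luminescence on a PHERAstar FS. From these readings, Breeze software derived a drug sensitivity score per cell line and drug, with higher values meaning more sensitive and zero meaning no response.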
row,SMILES,drug sensitivity score
1,CCN(CC)CCCC(C)Nc1c2ccc(Cl)cc2nc2ccc(OC)cc12 (stereo unspecified) [Mepacrine],16
2,S=c1[nH]cnc2nc[nH]c12 [Mercaptopurine],4.4
3,Cc1ccc(C(=O)Nc2ccc(Oc3cc4cnn(C)c4cc3-c3cn[nH]c3)c(F)c2)c(=O)n1-c1ccc(F)cc1 [Merestinib],0.6
4,CN(C)C(=N)NC(=N)N [Metformin],0
5,CN(Cc1cnc2nc(N)nc(N)c2n1)c1ccc(C(=O)N[C@@H](CCC(=O)O)C(=O)O)cc1 [Methotrexate],10.6
6,C[C@H]1C[C@@H]2[C@H]([C@@H](O)C[C@@]3(C)[C@H]2CC[C@]3(O)C(=O)CO)[C@@]2(C)C=CC(=O)C=C12 [Methylprednisolone],0
7,CO[C@@H]1[C@H](N(C)C(=O)c2ccccc2)C[C@H]2O[C@]1(C)n1c3ccccc3c3c4c(c5c6ccccc6n2c5c31)C(=O)NC4 [Midostaurin],12.7
8,CNC(=O)c1nn(C)c2c1C(C)(C)Cc1cnc(Nc3ccc(N4CCN(C)CC4)cc3)nc1-2 [Milciclib],8.1
9,CCCCCCCCCCCCCCCCOP(=O)([O-])OCC[N+](C)(C)C [Miltefosine],4.1
10,CO[C@@]12[C@H](COC(N)=O)C3=C(C(=O)C(C)=C(N)C3=O)N1C[C@@H]1N[C@@H]12 [Mitomycin C],0.9
11,Clc1ccc(C(c2ccccc2Cl)C(Cl)Cl)cc1 (stereo unspecified) [Mitotane],0.5
12,O=C1c2c(O)ccc(O)c2C(=O)c2c(NCCNCCO)ccc(NCCNCCO)c21 [Mitoxantrone],5.9
13,CCS(=O)(=O)Nc1ccc(Oc2ccc(F)cc2F)c(-c2cn(C)c(=O)c3[nH]ccc23)c1 [Mivebresib],22.1
14,Nc1ccccc1NC(=O)c1ccc(CNc2nccc(-c3cccnc3)n2)cc1 [Mocetinostat],7.5
15,CCNC(=O)C[C@@H]1N=C(c2ccc(Cl)cc2)c2cc(OC)ccc2-n2c(C)nnc21 [Molibresib],8.4
16,N#CCNC(=O)c1ccc(-c2ccnc(Nc3ccc(N4CCOCC4)cc3)n2)cc1 [Momelotinib],2.6
17,CC1(C)CNc2cc(NC(=O)c3cccnc3NCc3ccncc3)ccc21 [Motesanib],0.3
18,CCCN(CCC)C(=O)C1=Cc2ccc(-c3ccc(C(=O)N4CCCC4)cc3)cc2N=C(N)C1 [Motolimod],1.9
19,FC(F)(F)c1ccc(/C=C/c2nc(COc3ccc(CCCCn4ccnn4)cc3)co2)cc1 [Mubritinib],5.9
20,Cc1cc(OCc2nnc(SC3CCCC3)n2-c2cccnc2)ccc1-c1ccc(S(C)(=O)=O)cc1 [NMS-873],12.4
21,COc1ccc(-c2ccc3ncc4c(c3c2)n(-c2ccc(N3CCNCC3)c(C(F)(F)F)c2)c(=O)n4C)cn1 [NVP-BGT226],17.2
22,Cc1ccc(C(=O)Nc2cccc(C(F)(F)F)c2)cc1Nc1nc(-c2cccnc2)nc2c1cnn2C [NVP-BHG712],0.1
23,COc1cc2c(cc1OC(C)C)[C@H](c1ccc(Cl)cc1)N(c1ccc(N(C)C[C@H]3CC[C@H](N4CCN(C)C(=O)C4)CC3)cc1)C(=O)C2 [NVP-CGM097],5.4
24,CN[C@@H](C)C(=O)N[C@H](C(=O)N1CCC[C@H]1c1nc(C(=O)c2ccc(F)cc2)cs1)C1CCCCC1 [NVP-LCL161],5
25,Cn1c(Nc2ccc(C(F)(F)F)cc2)nc2cc(Oc3ccnc(-c4ncc(C(F)(F)F)[nH]4)c3)ccc21 [NVP-RAF265],4.2
26,CC(=O)c1cc2c(o1)C(=O)c1ccccc1C2=O [Napabucasin],17.9
27,CC1(C)CCC(c2ccc(Cl)cc2)=C(CN2CCN(c3ccc(C(=O)NS(=O)(=O)c4ccc(N[C@H](CCN5CCOCC5)CSc5ccccc5)c(S(=O)(=O)C(F)(F)F)c4)cc3)CC2)C1 [Navitoclax],10.2

# Tested on: JHOS2
# Assay: as above
# Details: exposure time: 72 h; concentration range: 5 concentrations over 10,000-fold range
# Summary of the method: as §1
row,SMILES,drug sensitivity score
1,CCN(CC)CCCC(C)Nc1c2ccc(Cl)cc2nc2ccc(OC)cc12 (stereo unspecified) [Mepacrine],10.5
2,S=c1[nH]cnc2nc[nH]c12 [Mercaptopurine],4.1
3,Cc1ccc(C(=O)Nc2ccc(Oc3cc4cnn(C)c4cc3-c3cn[nH]c3)c(F)c2)c(=O)n1-c1ccc(F)cc1 [Merestinib],2.4
4,CN(C)C(=N)NC(=N)N [Metformin],0
5,CN(Cc1cnc2nc(N)nc(N)c2n1)c1ccc(C(=O)N[C@@H](CCC(=O)O)C(=O)O)cc1 [Methotrexate],6.5
6,C[C@H]1C[C@@H]2[C@H]([C@@H](O)C[C@@]3(C)[C@H]2CC[C@]3(O)C(=O)CO)[C@@]2(C)C=CC(=O)C=C12 [Methylprednisolone],0.7
7,CO[C@@H]1[C@H](N(C)C(=O)c2ccccc2)C[C@H]2O[C@]1(C)n1c3ccccc3c3c4c(c5c6ccccc6n2c5c31)C(=O)NC4 [Midostaurin],9.7
8,CNC(=O)c1nn(C)c2c1C(C)(C)Cc1cnc(Nc3ccc(N4CCN(C)CC4)cc3)nc1-2 [Milciclib],9.1
9,CCCCCCCCCCCCCCCCOP(=O)([O-])OCC[N+](C)(C)C [Miltefosine],11.5
10,CO[C@@]12[C@H](COC(N)=O)C3=C(C(=O)C(C)=C(N)C3=O)N1C[C@@H]1N[C@@H]12 [Mitomycin C],0
11,Clc1ccc(C(c2ccccc2Cl)C(Cl)Cl)cc1 (stereo unspecified) [Mitotane],0
12,O=C1c2c(O)ccc(O)c2C(=O)c2c(NCCNCCO)ccc(NCCNCCO)c21 [Mitoxantrone],6.2
13,CCS(=O)(=O)Nc1ccc(Oc2ccc(F)cc2F)c(-c2cn(C)c(=O)c3[nH]ccc23)c1 [Mivebresib],18.4
14,Nc1ccccc1NC(=O)c1ccc(CNc2nccc(-c3cccnc3)n2)cc1 [Mocetinostat],7.3
15,CCNC(=O)C[C@@H]1N=C(c2ccc(Cl)cc2)c2cc(OC)ccc2-n2c(C)nnc21 [Molibresib],4.1
16,N#CCNC(=O)c1ccc(-c2ccnc(Nc3ccc(N4CCOCC4)cc3)n2)cc1 [Momelotinib],6.9
17,CC1(C)CNc2cc(NC(=O)c3cccnc3NCc3ccncc3)ccc21 [Motesanib],0
18,CCCN(CCC)C(=O)C1=Cc2ccc(-c3ccc(C(=O)N4CCCC4)cc3)cc2N=C(N)C1 [Motolimod],1.8
19,FC(F)(F)c1ccc(/C=C/c2nc(COc3ccc(CCCCn4ccnn4)cc3)co2)cc1 [Mubritinib],0.3
20,Cc1cc(OCc2nnc(SC3CCCC3)n2-c2cccnc2)ccc1-c1ccc(S(C)(=O)=O)cc1 [NMS-873],6.7
21,COc1ccc(-c2ccc3ncc4c(c3c2)n(-c2ccc(N3CCNCC3)c(C(F)(F)F)c2)c(=O)n4C)cn1 [NVP-BGT226],11.6
22,Cc1ccc(C(=O)Nc2cccc(C(F)(F)F)c2)cc1Nc1nc(-c2cccnc2)nc2c1cnn2C [NVP-BHG712],2.1
23,COc1cc2c(cc1OC(C)C)[C@H](c1ccc(Cl)cc1)N(c1ccc(N(C)C[C@H]3CC[C@H](N4CCN(C)C(=O)C4)CC3)cc1)C(=O)C2 [NVP-CGM097],6.4
24,CN[C@@H](C)C(=O)N[C@H](C(=O)N1CCC[C@H]1c1nc(C(=O)c2ccc(F)cc2)cs1)C1CCCCC1 [NVP-LCL161],9.1
25,Cn1c(Nc2ccc(C(F)(F)F)cc2)nc2cc(Oc3ccnc(-c4ncc(C(F)(F)F)[nH]4)c3)ccc21 [NVP-RAF265],1.2
26,CC(=O)c1cc2c(o1)C(=O)c1ccccc1C2=O [Napabucasin],18.6
27,CC1(C)CCC(c2ccc(Cl)cc2)=C(CN2CCN(c3ccc(C(=O)NS(=O)(=O)c4ccc(N[C@H](CCN5CCOCC5)CSc5ccccc5)c(S(=O)(=O)C(F)(F)F)c4)cc3)CC2)C1 [Navitoclax],0

# Tested on: HOSE2C
# Assay: as above
# Details: exposure time: 72 h; concentration range: 5 concentrations over 10,000-fold range
# Summary of the method: as §1
row,SMILES,drug sensitivity score
1,CCN(CC)CCCC(C)Nc1c2ccc(Cl)cc2nc2ccc(OC)cc12 (stereo unspecified) [Mepacrine],8.2
2,S=c1[nH]cnc2nc[nH]c12 [Mercaptopurine],0
3,Cc1ccc(C(=O)Nc2ccc(Oc3cc4cnn(C)c4cc3-c3cn[nH]c3)c(F)c2)c(=O)n1-c1ccc(F)cc1 [Merestinib],0
4,CN(C)C(=N)NC(=N)N [Metformin],0
5,CN(Cc1cnc2nc(N)nc(N)c2n1)c1ccc(C(=O)N[C@@H](CCC(=O)O)C(=O)O)cc1 [Methotrexate],13.2
6,C[C@H]1C[C@@H]2[C@H]([C@@H](O)C[C@@]3(C)[C@H]2CC[C@]3(O)C(=O)CO)[C@@]2(C)C=CC(=O)C=C12 [Methylprednisolone],0
7,CO[C@@H]1[C@H](N(C)C(=O)c2ccccc2)C[C@H]2O[C@]1(C)n1c3ccccc3c3c4c(c5c6ccccc6n2c5c31)C(=O)NC4 [Midostaurin],15.1
8,CNC(=O)c1nn(C)c2c1C(C)(C)Cc1cnc(Nc3ccc(N4CCN(C)CC4)cc3)nc1-2 [Milciclib],7.4
9,CCCCCCCCCCCCCCCCOP(=O)([O-])OCC[N+](C)(C)C [Miltefosine],5.9
10,CO[C@@]12[C@H](COC(N)=O)C3=C(C(=O)C(C)=C(N)C3=O)N1C[C@@H]1N[C@@H]12 [Mitomycin C],0
11,Clc1ccc(C(c2ccccc2Cl)C(Cl)Cl)cc1 (stereo unspecified) [Mitotane],0
12,O=C1c2c(O)ccc(O)c2C(=O)c2c(NCCNCCO)ccc(NCCNCCO)c21 [Mitoxantrone],12.8
13,CCS(=O)(=O)Nc1ccc(Oc2ccc(F)cc2F)c(-c2cn(C)c(=O)c3[nH]ccc23)c1 [Mivebresib],25.6
14,Nc1ccccc1NC(=O)c1ccc(CNc2nccc(-c3cccnc3)n2)cc1 [Mocetinostat],15.7
15,CCNC(=O)C[C@@H]1N=C(c2ccc(Cl)cc2)c2cc(OC)ccc2-n2c(C)nnc21 [Molibresib],10
16,N#CCNC(=O)c1ccc(-c2ccnc(Nc3ccc(N4CCOCC4)cc3)n2)cc1 [Momelotinib],5.8
17,CC1(C)CNc2cc(NC(=O)c3cccnc3NCc3ccncc3)ccc21 [Motesanib],0
18,CCCN(CCC)C(=O)C1=Cc2ccc(-c3ccc(C(=O)N4CCCC4)cc3)cc2N=C(N)C1 [Motolimod],0
19,FC(F)(F)c1ccc(/C=C/c2nc(COc3ccc(CCCCn4ccnn4)cc3)co2)cc1 [Mubritinib],0
20,Cc1cc(OCc2nnc(SC3CCCC3)n2-c2cccnc2)ccc1-c1ccc(S(C)(=O)=O)cc1 [NMS-873],8.1
21,COc1ccc(-c2ccc3ncc4c(c3c2)n(-c2ccc(N3CCNCC3)c(C(F)(F)F)c2)c(=O)n4C)cn1 [NVP-BGT226],15.7
22,Cc1ccc(C(=O)Nc2cccc(C(F)(F)F)c2)cc1Nc1nc(-c2cccnc2)nc2c1cnn2C [NVP-BHG712],2.7
23,COc1cc2c(cc1OC(C)C)[C@H](c1ccc(Cl)cc1)N(c1ccc(N(C)C[C@H]3CC[C@H](N4CCN(C)C(=O)C4)CC3)cc1)C(=O)C2 [NVP-CGM097],16.5
24,CN[C@@H](C)C(=O)N[C@H](C(=O)N1CCC[C@H]1c1nc(C(=O)c2ccc(F)cc2)cs1)C1CCCCC1 [NVP-LCL161],0
25,Cn1c(Nc2ccc(C(F)(F)F)cc2)nc2cc(Oc3ccnc(-c4ncc(C(F)(F)F)[nH]4)c3)ccc21 [NVP-RAF265],4.5
26,CC(=O)c1cc2c(o1)C(=O)c1ccccc1C2=O [Napabucasin],24.2
27,CC1(C)CCC(c2ccc(Cl)cc2)=C(CN2CCN(c3ccc(C(=O)NS(=O)(=O)c4ccc(N[C@H](CCN5CCOCC5)CSc5ccccc5)c(S(=O)(=O)C(F)(F)F)c4)cc3)CC2)C1 [Navitoclax],5.9
